Measured values: patent US6008352A, “1-(isoquinolin-1-yl)-4-(1-phenylmethyl) piperazines; dopamine receptor subtype specific ligands” (Neurogen Corporation, priority 1998, dated 1999)

How the values were obtained:
[1] = biological target: D4 receptor; assay: D4 receptor binding assay (3H-YM 09151-2 displacement); design: species or system African Green monkey; settings: 0.5 nM 3H-YM 09151-2; nonspecific binding with 1 mM spiperone
Experimental: (§1) 1. Assay For D2 And D4 Receptor Binding Activity
(§2) Pellets of COS cells containing recombinantly produced D2 or D4 receptors from African Green monkey are used for the assays. The sample is homogenized in 100 volumes (w/vol) of 0.05 M Tris HCl buffer at 4° C. and pH 7.4. The sample is then centrifuged at 30,000×g and resuspended and rehomogenized. The sample is again centrifuged as described above and the final tissue sample is frozen until use. The tissue is resuspended 1:20 (wt/vol) in 0.05 M Tris HCl buffer containing 100 mM NaCl.
(§3) Incubations are carried out at […] and contain 0.4 ml of tissue sample, 0.5 nM ^3 H-YM 09151-2 and the compound of interest in a total incubation of 1.0 ml. Nonspecific binding is defined as that binding found in the presence of 1 mM spiperone; without further additions, nonspecific binding is less than 20% of total binding. Binding characteristics for representative examples of this invention for the D2 and D4 receptor subtypes are shown in Table 2 below for rat striatal homogenates. The binding characteristics of compounds of Formula I for the D4 receptor, expressed in nM, generally range from about 0.5 nanomolar (nM) to about 25 nanomolar (nM). These compounds typically have binding constants for the D2 receptor of from about 200 nM to more than 1000 nM.

[2] = biological target: T1, D2 receptor (Chlorocebus aethiops, UniProt P52702); assay: D2 receptor binding assay (3H-YM 09151-2 displacement); design: species or system African Green monkey; settings: 0.5 nM 3H-YM 09151-2; nonspecific binding with 1 mM spiperone
T1 construct: expressed in transfected cells; host or cells: COS cells
T1 sequence (P52702 whole entry): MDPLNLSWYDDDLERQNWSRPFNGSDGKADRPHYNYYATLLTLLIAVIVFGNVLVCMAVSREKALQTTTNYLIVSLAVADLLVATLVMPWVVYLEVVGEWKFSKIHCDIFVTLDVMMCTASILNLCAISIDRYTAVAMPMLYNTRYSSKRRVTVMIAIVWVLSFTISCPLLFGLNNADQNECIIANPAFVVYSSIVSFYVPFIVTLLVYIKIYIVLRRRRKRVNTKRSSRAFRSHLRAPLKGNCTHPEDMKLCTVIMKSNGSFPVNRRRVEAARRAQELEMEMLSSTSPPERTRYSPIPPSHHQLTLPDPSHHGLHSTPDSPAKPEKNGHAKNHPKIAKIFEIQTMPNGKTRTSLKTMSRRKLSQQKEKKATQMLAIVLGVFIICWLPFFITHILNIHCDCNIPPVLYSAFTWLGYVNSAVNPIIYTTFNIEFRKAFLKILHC
Experimental: as §1, §2, §3

Ki [1] [nM]	Ki [2] [nM]	Compound
5	556	Clc1ccc(CN2CCN(c3nccc4ccccc34)CC2)cc1 [Compound 1]
13	1000	Fc1ccc(CN2CCN(c3nccc4ccccc34)CC2)cc1F [Compound 2]
19	–	c1ccc2c(N3CCN(Cc4ccc5c(c4)OCO5)CC3)nccc2c1 [Compound 4]
9	220	Cc1ccc(CN2CCN(c3nccc4ccccc34)CC2)cc1 [Compound 6]
